# Experimental data from ChEMBL document CHEMBL1914297, “Regulators of G protein signaling (RGS) proteins as drug targets: modulating G-protein-coupled receptor (GPCR) signal transduction” (J Med Chem, 2011).
# Where a SMILES comes first, the peptide text is derived from it. Bridges are numbered along the chain shown (N, C = ends).
# What was measured:
# [1] = target: Regulator of G-protein signaling 4 (Homo sapiens) (UniProt P49798); experiment: Inhibition of RGS4 GTPase accelrating activity
# Homo sapiens [2] = species on record: Homo sapiens; experiment: Selectivity ratio of IC50 for human RGS4 expressed in Escherichia coli BL21 (DE3) to IC50 for human RGS8 expressed in Escherichia coli BL21 (DE3)
# Homo sapiens [3] = species on record: Homo sapiens; experiment: Selectivity ratio of IC50 for human RGS4 expressed in Escherichia coli BL21 (DE3) to IC50 for human RGS16 expressed in Escherichia coli BL21 (DE3)
# [4] = Selectivity for RGS4 over RGS16
# [5] = Selectivity for RGS4 over RGS8
# Chain of Regulator of G-protein signaling 4 (Homo sapiens) (P49798 whole entry, looked up): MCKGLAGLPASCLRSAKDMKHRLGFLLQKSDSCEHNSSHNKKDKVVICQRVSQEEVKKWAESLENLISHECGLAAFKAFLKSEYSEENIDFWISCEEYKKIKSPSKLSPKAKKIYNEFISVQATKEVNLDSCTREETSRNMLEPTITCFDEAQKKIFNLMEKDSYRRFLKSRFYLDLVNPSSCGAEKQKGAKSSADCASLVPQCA
Structure (SMILES),INH [1],Ratio IC50 (Homo sapiens [2]),Ratio IC50 (Homo sapiens [3]),Selectivity ratio [4],Selectivity ratio [5]
CC[C@H](C)[C@@H]1NC(=O)CNC(=O)[C@H]([C@@H](C)O)NC(=O)[C@@H](NC(=O)[C@H](CCCCN)NC(=O)[C@@H](NC(C)=O)C(C)C)CSSC[C@@H](C(=O)N[C@@H](CCC(=O)O)C(N)=O)NC1=O (Ac-VKCTGICE-NH2; disulfide 3-7),26 µM,–,–,–,–
Cc1cccn2c(=O)c(/C=C(\C#N)c3nc4ccccc4s3)c(Oc3ccc(F)cc3)nc12,–,10,10,–,–
Cc1cccc(Oc2nc3c(C)cccn3c(=O)c2/C=C(\C#N)c2nc3ccccc3s2)c1,–,10,10,–,–
Cc1ccc(-n2sc(=O)n(Cc3ccc(F)cc3)c2=O)cc1,–,–,–,100,100
